# Data as given in PubChem BioAssay (NCI).
#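 GI50: concentration for 50% inhibition of growth. TGI marks complete inhibition of growth.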
# How the values were obtained:
# Experiment in all cases: growth of human tumour cells (NCI), 384-well format
# 786-0 renal = tested on: 786-0 renal
# A498 renal = tested on: A498 renal
# A549 NSCLC = tested on: A549 NSCLC
# ACHN renal = tested on: ACHN renal
# BT-549 breast = tested on: BT-549 breast
# CAKI-1 renal = tested on: CAKI-1 renal
# CCRF-CEM leukemia = tested on: CCRF-CEM leukemia
# COLO 205 colon = tested on: COLO 205 colon
# DU-145 prostate = tested on: DU-145 prostate
# EKVX NSCLC = tested on: EKVX NSCLC
# HCC-2998 colon = tested on: HCC-2998 colon
# HCT-15 colon = tested on: HCT-15 colon
# HL-60(TB) leukemia = tested on: HL-60(TB) leukemia
# HOP-62 NSCLC = tested on: HOP-62 NSCLC
# HOP-92 NSCLC = tested on: HOP-92 NSCLC
# HS 578T breast = tested on: HS 578T breast
# HT29 colon = tested on: HT29 colon
# IGROV1 ovarian = tested on: IGROV1 ovarian
# KM12 colon = tested on: KM12 colon
# M14 melanoma = tested on: M14 melanoma
# MALME-3M melanoma = tested on: MALME-3M melanoma
# MCF7 breast = tested on: MCF7 breast
# MDA-MB-231 breast = tested on: MDA-MB-231 breast
# MDA-MB-435 melanoma = tested on: MDA-MB-435 melanoma
# MDA-MB-468 breast = tested on: MDA-MB-468 breast
# MOLT-4 leukemia = tested on: MOLT-4 leukemia
# NCI-H226 lung = tested on: NCI-H226 lung
# NCI-H23 lung = tested on: NCI-H23 lung
# NCI-H322M lung = tested on: NCI-H322M lung
# NCI-H460 NSCLC = tested on: NCI-H460 NSCLC
# NCI-H522 lung = tested on: NCI-H522 lung
# NCI/ADR-RES ovarian = tested on: NCI/ADR-RES ovarian
# OVCAR-3 ovarian = tested on: OVCAR-3 ovarian
# OVCAR-4 ovarian = tested on: OVCAR-4 ovarian
# OVCAR-5 ovarian = tested on: OVCAR-5 ovarian
# OVCAR-8 ovarian = tested on: OVCAR-8 ovarian
# PC-3 prostate = tested on: PC-3 prostate
# RPMI-8226 leukemia = tested on: RPMI-8226 leukemia
# RXF 393 renal = tested on: RXF 393 renal
# SF-268 CNS = tested on: SF-268 CNS
# SF-295 CNS = tested on: SF-295 CNS
# SF-539 CNS = tested on: SF-539 CNS
# SK-MEL-2 melanoma = tested on: SK-MEL-2 melanoma
# SK-MEL-28 melanoma = tested on: SK-MEL-28 melanoma
# SK-MEL-5 melanoma = tested on: SK-MEL-5 melanoma
# SK-OV-3 ovarian = tested on: SK-OV-3 ovarian
# SN12C renal = tested on: SN12C renal
# SNB-19 CNS = tested on: SNB-19 CNS
# SNB-75 CNS = tested on: SNB-75 CNS
# SR leukemia = tested on: SR leukemia
# SW-620 colon = tested on: SW-620 colon
# T-47D breast = tested on: T-47D breast
# TK-10 renal = tested on: TK-10 renal
# U251 glioblastoma = tested on: U251 glioblastoma
# UACC-257 melanoma = tested on: UACC-257 melanoma
# UACC-62 melanoma = tested on: UACC-62 melanoma
smiles,measurement,setting,value
COc1cccc(-c2cc(=O)c3ccccc3o2)c1N,GI50,786-0 renal,> 100 µM
same,TGI,786-0 renal,> 100 µM
same,GI50,A498 renal,49.7 µM
same,TGI,A498 renal,> 100 µM
same,GI50,A549 NSCLC,> 100 µM
same,TGI,A549 NSCLC,> 100 µM
same,GI50,ACHN renal,> 100 µM
same,TGI,ACHN renal,> 100 µM
same,GI50,BT-549 breast,77.3 µM
same,TGI,BT-549 breast,> 100 µM
same,GI50,CAKI-1 renal,> 100 µM
same,TGI,CAKI-1 renal,> 100 µM
same,GI50,CCRF-CEM leukemia,23.1 µM
same,TGI,CCRF-CEM leukemia,67.6 µM
same,GI50,COLO 205 colon,3.97 µM
same,TGI,COLO 205 colon,10.8 µM
same,GI50,DU-145 prostate,54.9 µM
same,TGI,DU-145 prostate,> 100 µM
same,GI50,EKVX NSCLC,37.1 µM
same,TGI,EKVX NSCLC,> 100 µM
same,GI50,HCC-2998 colon,13.8 µM
same,TGI,HCC-2998 colon,58 µM
same,GI50,HCT-15 colon,91.8 µM
same,TGI,HCT-15 colon,> 100 µM
same,GI50,HL-60(TB) leukemia,2.79 µM
same,TGI,HL-60(TB) leukemia,21.2 µM
same,GI50,HOP-62 NSCLC,33.1 µM
same,TGI,HOP-62 NSCLC,> 100 µM
same,GI50,HOP-92 NSCLC,56.1 µM
same,TGI,HOP-92 NSCLC,> 100 µM
same,GI50,HS 578T breast,47.7 µM
same,TGI,HS 578T breast,> 100 µM
same,GI50,HT29 colon,13.2 µM
same,TGI,HT29 colon,> 100 µM
same,GI50,IGROV1 ovarian,30.7 µM
same,TGI,IGROV1 ovarian,> 100 µM
same,GI50,KM12 colon,40.7 µM
same,TGI,KM12 colon,> 100 µM
same,GI50,M14 melanoma,3.91 µM
same,TGI,M14 melanoma,20 µM
same,GI50,MALME-3M melanoma,2.25 µM
same,TGI,MALME-3M melanoma,5.26 µM
same,GI50,MCF7 breast,88.1 µM
same,TGI,MCF7 breast,> 100 µM
same,GI50,MDA-MB-231 breast,40.4 µM
same,TGI,MDA-MB-231 breast,> 100 µM
same,GI50,MDA-MB-435 melanoma,10.4 µM
same,TGI,MDA-MB-435 melanoma,> 100 µM
same,GI50,MDA-MB-468 breast,0.278 µM
same,TGI,MDA-MB-468 breast,0.844 µM
same,GI50,MOLT-4 leukemia,25.9 µM
same,TGI,MOLT-4 leukemia,66.5 µM
same,GI50,NCI-H226 lung,25 µM
same,TGI,NCI-H226 lung,70.2 µM
same,GI50,NCI-H23 lung,23.9 µM
same,TGI,NCI-H23 lung,99.5 µM
same,GI50,NCI-H322M lung,> 100 µM
same,TGI,NCI-H322M lung,> 100 µM
same,GI50,NCI-H460 NSCLC,66.1 µM
same,TGI,NCI-H460 NSCLC,> 100 µM
same,GI50,NCI-H522 lung,30 µM
same,TGI,NCI-H522 lung,> 100 µM
same,GI50,NCI/ADR-RES ovarian,25.1 µM
same,TGI,NCI/ADR-RES ovarian,74.7 µM
same,GI50,OVCAR-3 ovarian,65 µM
same,TGI,OVCAR-3 ovarian,> 100 µM
same,GI50,OVCAR-4 ovarian,28.1 µM
same,TGI,OVCAR-4 ovarian,> 100 µM
same,GI50,OVCAR-5 ovarian,43.1 µM
same,TGI,OVCAR-5 ovarian,> 100 µM
same,GI50,OVCAR-8 ovarian,38 µM
same,TGI,OVCAR-8 ovarian,> 100 µM
same,GI50,PC-3 prostate,> 100 µM
same,TGI,PC-3 prostate,> 100 µM
same,GI50,RPMI-8226 leukemia,34.4 µM
same,TGI,RPMI-8226 leukemia,> 100 µM
same,GI50,RXF 393 renal,46.4 µM
same,TGI,RXF 393 renal,> 100 µM
same,GI50,SF-268 CNS,> 100 µM
same,TGI,SF-268 CNS,> 100 µM
same,GI50,SF-295 CNS,> 100 µM
same,TGI,SF-295 CNS,> 100 µM
same,GI50,SF-539 CNS,> 100 µM
same,TGI,SF-539 CNS,> 100 µM
same,GI50,SK-MEL-2 melanoma,27.3 µM
same,TGI,SK-MEL-2 melanoma,55.7 µM
same,GI50,SK-MEL-28 melanoma,4.03 µM
same,TGI,SK-MEL-28 melanoma,9.78 µM
same,GI50,SK-MEL-5 melanoma,10.8 µM
same,TGI,SK-MEL-5 melanoma,37.9 µM
same,GI50,SK-OV-3 ovarian,79.7 µM
same,TGI,SK-OV-3 ovarian,> 100 µM
same,GI50,SN12C renal,72.4 µM
same,TGI,SN12C renal,> 100 µM
same,GI50,SNB-19 CNS,> 100 µM
same,TGI,SNB-19 CNS,> 100 µM
same,GI50,SNB-75 CNS,41.1 µM
same,TGI,SNB-75 CNS,> 100 µM
same,GI50,SR leukemia,31.3 µM
same,TGI,SR leukemia,96.5 µM
same,GI50,SW-620 colon,18.8 µM
same,TGI,SW-620 colon,> 100 µM
same,GI50,T-47D breast,59.3 µM
same,TGI,T-47D breast,> 100 µM
same,GI50,TK-10 renal,> 100 µM
same,TGI,TK-10 renal,> 100 µM
same,GI50,U251 glioblastoma,97.2 µM
same,TGI,U251 glioblastoma,> 100 µM
same,GI50,UACC-257 melanoma,5.54 µM
same,TGI,UACC-257 melanoma,37.2 µM
same,GI50,UACC-62 melanoma,4.95 µM
same,TGI,UACC-62 melanoma,28.9 µM
